Where two headings read alike, the source gives them in different places.
How the values were obtained:
MGC-803 = assay: CCK-8 proliferation, MGC-803 (heads: MGC80-3, MGC803); assay type: cell-based, Human; conditions: Homo sapiens, MGC-803
Experimental: (§1) The tumor cells used herein were cultured in a cell culture medium listed in table A1 at 37°C in an incubator with 5% CO2. Prior to experimentation, all cell lines used were correctly identified by STR profiling, and tested negative for mycoplasma contamination using a mycoplasma detection kit through routine screenings. Table A1. Tumor cells and cell culture medium used in the present disclosure
(§2) IC50 values of the compounds of the present disclosure (including the compounds in Table 1, and compounds of examples) were measured using the Meilun Cell Counting Kit-8 kit from Dalian Meilun Biotech Co., Ltd. Assay details are as follows: tumor cells were seeded in a 96-well plate at a density listed in Table A2. After 24h, 100 µL of the inoculated cells were treated with 0.5µL of the compounds of the present disclosure (including the compounds in Tables 1 and 2, and compounds of examples) at 10 different successively decreasing concentrations (starting at the highest concentration of 10µM; 5-fold serial dilutions). After the cells were treated with the compounds of the present disclosure for a period of time, the cell viability detection reagent was added to the culture medium for cell viability assessment according to the instructions provided with the CCK-8 kit. […] The growth inhibition of the compounds of the present disclosure on cells was plotted by Prism Graphpad software, and the IC50 values of the compounds of the present disclosure were calculated therefrom. […] Seeding protocol and treatment time for tumor cells

SW620 = assay: CCK-8 proliferation, SW620; assay type: cell-based; conditions: Homo sapiens, SW-620; CCK-8; 96 hours; read-out: Inhibitory activity (IC50) on tumor cell proliferation, SW620
Experimental: as §1, §2

IRAK4 = target: T1, IRAK4 (Homo sapiens, UniProt Q9NWZ3); assay: Western blot degradation of IRAK4 (hPBMC); assay type: cell-based; conditions: Table D1
T1 construct: evaluate the effects of the compounds of the present disclosure on the expression of target proteins in cells; endogenous in cells; host or cells: hPBMC
T1 sequence (Q9NWZ3 1-460): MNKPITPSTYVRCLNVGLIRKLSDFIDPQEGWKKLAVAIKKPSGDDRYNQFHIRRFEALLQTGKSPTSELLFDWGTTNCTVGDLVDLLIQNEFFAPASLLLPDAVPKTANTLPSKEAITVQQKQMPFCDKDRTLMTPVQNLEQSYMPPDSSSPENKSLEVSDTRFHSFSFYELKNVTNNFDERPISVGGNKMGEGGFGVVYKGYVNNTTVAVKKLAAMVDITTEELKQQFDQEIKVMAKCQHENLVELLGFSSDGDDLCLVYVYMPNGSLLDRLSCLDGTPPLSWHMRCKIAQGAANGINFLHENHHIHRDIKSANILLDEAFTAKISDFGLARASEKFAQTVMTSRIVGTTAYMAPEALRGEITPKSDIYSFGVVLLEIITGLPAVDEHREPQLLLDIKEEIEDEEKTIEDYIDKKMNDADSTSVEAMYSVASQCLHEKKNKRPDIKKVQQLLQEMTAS
Summary of the method: (§3)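 Quantification by ImageJ densitometry of Western blot bands: DC50 is the fitted concentration halving band intensity relative to DMSO. Percent remaining uses internal-control normalization, and degradation rate is its complement.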

Jurkat = assay: CCK-8 proliferation, Jurkat; assay type: cell-based, Human; conditions: Homo sapiens; Table B10, compounds designed based on the IRAK4 inhibitors; Jurkat cells; read-out: Inhibitory activity (IC50, nM) on tumor cell proliferation, Jurkat
Summary of the method: (§4)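 Cells seeded, then after 24 h treated with 10 concentrations (top 10 µM, 5-fold serial dilution) for a line-specific time at 37°C, 5% CO2. Viability read by CCK-8; IC50 fitted from growth-inhibition curves.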

MM.1S = assay: CCK-8 proliferation, MM.1S; assay type: cell-based; conditions: Homo sapiens, MM1.S; Table B10, compounds designed based on the IRAK4 inhibitors; MM.1S cells; read-out: Inhibitory activity (IC50, nM) on tumor cell proliferation, MM.1S
Summary of the method: as §4

SR = assay: CCK-8 proliferation, SR; assay type: cell-based, Human; conditions: Homo sapiens; Table B10, compounds designed based on the IRAK4 inhibitors; SR cells; read-out: Inhibitory activity (IC50, nM) on tumor cell proliferation, SR
Summary of the method: as §4

H1975 = assay: CCK-8 proliferation, NCI-H1975 (H1975); assay type: cell-based, Human; conditions: Homo sapiens, NCI-H1975; CCK-8; 96 hours; read-out: Inhibitory activity (IC50) on tumor cell proliferation, H1975
Summary of the method: as §4

EGFR = assay: Western blot degradation of EGFR (H1975 Cell); assay type: cell-based, Human; conditions: Table D2
Summary of the method: as §3

[1] = system: H1975-1µM Osimertinib cells; assay: CCK-8 proliferation, osimertinib-resistant H1975 cells; assay type: cell-based, Human; conditions: Homo sapiens, NCI-H1975; CCK-8; osimertinib-resistant H1975 cells obtained by treating H1975 cells with 1 µM Osimertinib for 3 months; read-out: Inhibitory activity (IC50) on tumor cell proliferation, H1975-1µm Osimertinib
Experimental: as §1, §2

[2] = Table B10, compounds designed based on the IRAK4 inhibitors, MGC803 cells, read-out: Inhibitory activity (IC50, nM) on tumor cell proliferation, MGC803

SMILES	IC50 (MGC-803; [2]) [nM]	IC50 (H1975) [nM]	Degradation of substrate protein EGFR (substrate protein remaining %) (EGFR)	IC50 [1] [nM]	also measured
CCC(=C(c1ccc(O)cc1)c1ccc(N2CCN(Cc3ccc(C4CCC(=O)NC4=O)c(F)c3)CC2)cc1)c1ccc(O)cc1 (stereo not drawn) [GT-04150, 3-(4-((4-(4-(1,2-bis(4-hydroxyphenyl)but-1-en-1-yl)phenyl)piperazin-1-yl)methyl)-2-fluorophenyl)piperidine-2,6-dione]					IC50 (MGC-803; CCK-8, 72 hours, read-out: Inhibitory activity (IC50) on tumor cell proliferation, MGC80-3): > 10000 nM; IC50 (SW620): < 1 nM
COc1cc2nn(C3CCN(Cc4ccc(C5CCC(=O)NC5=O)c(F)c4)CC3)cc2cc1NC(=O)c1cccc(C(F)(F)F)n1 (stereo not drawn) [GT-04762, N-(2-(1-(4-(2,6-dioxopiperidin-3-yl)-3-fluorobenzyl)piperidin-4-yl)-6-methoxy-2H-indazol-5-yl)-6-(trifluoromethyl)picolinamide]	500 to 1000				Degradation of substrate protein IRAK4 (substrate protein remaining %) (IRAK4): A (A is defined as 0% ≤ substrate protein remaining % ≤ 80%)
O=C1CCN(c2ccc(CN3CCC(N4CCN(c5ccc6c(c5)nc(NC(=O)c5cccc(C(F)(F)F)c5)n6[C@H]5CC[C@@H](CO)CC5)CC4)CC3)cc2)C(=O)N1 [GT-05021, N-(5-(4-(1-(4-(2,4-dioxotetrahydropyrimidin-1(2H)-yl)benzyl)piperidin-4-yl)piperazin-1-yl)-1-((1s,4s)-4-(hydroxymethyl)cyclohexyl) -1H-benzo[d]imidazol-2-yl)-3-(trifluoromethyl)benzamide]	500 to 1000				IC50 (Jurkat): 500 to 1000 nM; IC50 (MM.1S): 500 to 1000 nM
O=C1CCN(c2cccc(CN3CCC(N4CCN(c5ccc6c(c5)nc(NC(=O)c5cccc(C(F)(F)F)c5)n6[C@H]5CC[C@@H](CO)CC5)CC4)CC3)c2)C(=O)N1 [GT-05022, N-(5-(4-(1-(3-(2,4-dioxotetrahydropyrimidin-1(2H)-yl)benzyl)piperidin-4-yl)piperazin-1-yl)-1-((1s,4s)-4-(hydroxymethyl)cyclohexyl) -1H-benzo[d]imidazol-2-yl)-3-(trifluoromethyl)benzamide]	500 to 1000				IC50 (Jurkat): 500 to 1000 nM; IC50 (SR): 500 to 1000 nM; Degradation of substrate protein IRAK4 (substrate protein remaining %) (IRAK4): A (A is defined as 0% ≤ substrate protein remaining % ≤ 80%); IC50 (MM.1S): 500 to 1000 nM
O=C1CCN(c2ccc(CN3CCC(N4CCN(c5ccc6c(c5)nc(NC(=O)c5cccc(C(F)(F)F)c5)n6[C@H]5CC[C@@H](CO)CC5)CC4)CC3)nc2)C(=O)N1 [GT-05024, N-(5-(4-(1-((5-(2,4-dioxotetrahydropyrimidin-1(2H)-yl)pyridin-2-yl)methyl)piperidin-4-yl)piperazin-1-yl)-1-((1s,4s)-4-(hydroxymethyl)cyclohexyl) -1H-benzo[d]imidazol-2-yl)-3-(trifluoromethyl)benzamide]	500 to 1000				IC50 (Jurkat): 500 to 1000 nM; IC50 (SR): 500 to 1000 nM; IC50 (MM.1S): 500 to 1000 nM
CN(Cc1cccc(NC2CCC(=O)NC2=O)c1)C1CCN(c2ccc(-c3cc(F)c4c(c3)C(=O)N(C(C(=O)Nc3nccs3)c3ncn5c3CCC5)C4)cc2)CC1 (stereo not drawn) [GT-05284, 2-(6,7-dihydro-5H-pyrrolo[1,2-c]imidazol-1-yl)-2-(6-(4-(4-((3-((2,6-dioxopiperidin-3-yl)amino)benzyl)(methyl)amino)piperidin-1-yl)phenyl)-4-fluoro-1-oxoisoindolin-2-yl)-N-(thiazol-2-yl)acetamide]		1 to 10	A (A is defined as 0% ≤ substrate protein remaining % ≤ 80%)	500 to 1000	
COC1CCN(c2nccc(Nc3cc4c(cn3)c(N3CCN(Cc5ccc(N6CCC(=O)NC6=O)cc5)CC3)nn4C(C)C)n2)CC1 [GT-06037, 1-(4-((4-(1-isopropyl-6-((2-(4-methoxypiperidin-1-yl)pyrimidin-4-yl)amino)-1H-pyrazolo[4,3-c]pyridin-3-yl)piperazin-1-yl)methyl)phenyl)dihydropyr imidine-2,4(1H,3H)-dione]				1 to 10	
CC(C)n1nc(N2CCC(N3CCN(Cc4ccc(C5CCC(=O)NC5=O)cc4)CC3)CC2)c2cnc(Nc3ccnc(-c4cnn(S(=O)(=O)C5CC5)c4)n3)cc21 (stereo not drawn) [GT-06078, 3-(4-((4-(1-(6-((2-(1-(cyclopropylsulfonyl)-1H-pyrazol-4-yl)pyrimidin-4-yl)amino)-1-isopropyl-1H-pyrazolo[4,3-c]pyridin-3-yl)piperidin-4-yl)piperazin-1-yl)methyl)phenyl)piperidine-2,6-dione]			A (A is defined as 0% ≤ substrate protein remaining % ≤ 80%)	100 to 500	
O=C1CCC(Nc2cccc(CN3CCN(c4ccc(-c5cc(F)c6c(c5)C(=O)N(C(C(=O)Nc5nccs5)c5ncn7c5CCC7)C6)cc4)CC3)c2)C(=O)N1 (stereo not drawn) [GT-06188, 2-(6,7-dihydro-5H-pyrrolo[1,2-c]imidazol-1-yl)-2-(6-(4-(4-(3-((2,6-dioxopiperidin-3-yl)amino)benzyl)piperazin-1-yl)phenyl)-4-fluoro-1-oxoisoindolin-2-yl)-N-(thiazol-2-yl)acetamide]		1 to 10		< 1	
O=C1CCN(c2ccc(CN3C[C@H]4C[C@@H]3CN4c3ccc(-c4cc(F)c5c(c4)C(=O)N(C(C(=O)Nc4nccs4)c4ncn6c4CCC6)C5)cc3)nc2)C(=O)N1 (stereo partly drawn) [GT-06190, 2-(6,7-dihydro-5H-pyrrolo[1,2-c]imidazol-1-yl)-2-(6-(4-((1R,4R)-5-((5-(2,4-dioxotetrahydropyrimidin-1(2H)-yl)pyridin-2-yl)methyl)-2,5-diazabicyclo[2.2.1]heptan-2-yl)phenyl)-4-fluoro-1-oxoisoindolin-2-yl)-N-(thiazol-2-yl)acetamide]		1 to 10	A (A is defined as 0% ≤ substrate protein remaining % ≤ 80%)	100 to 500	
O=C1CCC(Nc2cccc(CN3CCN(C4CCN(c5ccc(-c6cc(F)c7c(c6)C(=O)N(C(C(=O)Nc6nccs6)c6ncn8c6CCC8)C7)cc5)CC4)CC3)c2)C(=O)N1 (stereo not drawn) [GT-06247, 2-(6,7-dihydro-5H-pyrrolo[1,2-c]imidazol-1-yl)-2-(6-(4-(4-(4-(3-((2,6-dioxopiperidin-3-yl)amino)benzyl)piperazin-1-yl)piperidin-1-yl)phenyl)-4-fluoro-1-oxoisoindolin-2-yl)-N-(thiazol-2-yl)acetamide]		10 to 50	A (A is defined as 0% ≤ substrate protein remaining % ≤ 80%)	50 to 100	
O=C1CCN(c2ccc(CN3CCN(C4CCN(c5ccc(-c6cc(F)c7c(c6)C(=O)N(C(C(=O)Nc6nccs6)c6ncn8c6CCC8)C7)cc5)CC4(F)F)CC3)cn2)C(=O)N1 (stereo not drawn) [GT-06320, 2-(6,7-dihydro-5H-pyrrolo[1,2-c]imidazol-1-yl)-2-(6-(4-(4-(4-((6-(2,4-dioxotetrahydropyrimidin-1(2H)-yl)pyridin-3-yl)methyl)piperazin-1-yl)-3,3-difluoropiperidin-1-yl)phenyl)-4-fluoro-1-oxoisoindolin-2-yl)-N-(thiazol-2-yl)acetamide]		1 to 10	A (A is defined as 0% ≤ substrate protein remaining % ≤ 80%)	500 to 1000	

Source: patent EP4678638A1, “NEW E3 UBIQUITIN LIGASE LIGAND, PROTEIN DEGRADATION AGENT AND USE THEREOF” (priority 2023, dated 2024)
